Experimental data published in ChEMBL document CHEMBL1201861, “Genomics of Drug Sensitity in Cancer screening data, Wellcome Trust Sanger Institute”.

Legend:
Assay in all cases: cells
Type in all cases: functional, cell-based, Homo sapiens
COR-L88 = conditions: Homo sapiens, COR-L88
Description: SANGER: Inhibition of human COR-L88 cell growth in a cell viability assay.

D-392MG = conditions: Homo sapiens, D-392MG
ES8 = conditions: Homo sapiens, ES8
Description: SANGER: Inhibition of human ES8 cell growth in a cell viability assay.

EW-18 = conditions: Homo sapiens, EW-18
Description: SANGER: Inhibition of human EW-18 cell growth in a cell viability assay.

EOL1 = conditions: Homo sapiens, EOL1
Description: SANGER: Inhibition of human EoL-1-cell cell growth in a cell viability assay.

GB-1 = conditions: Homo sapiens, GB-1
Description: SANGER: Inhibition of human GB-1 cell growth in a cell viability assay.

GI-ME-N = conditions: Homo sapiens, GI-ME-N
Description: SANGER: Inhibition of human GI-ME-N cell growth in a cell viability assay.

GR-ST = conditions: Homo sapiens, GR-ST
Description: SANGER: Inhibition of human GR-ST cell growth in a cell viability assay.

HC-1 = conditions: Homo sapiens, HC-1
Description: SANGER: Inhibition of human HC-1 cell growth in a cell viability assay.

HH = conditions: Homo sapiens, HH
Description: SANGER: Inhibition of human HH cell growth in a cell viability assay.

HOP-62 = conditions: Homo sapiens, HOP-62
Description: SANGER: Inhibition of human HOP-62 cell growth in a cell viability assay.

IST-SL1 = conditions: Homo sapiens, IST-SL1
Description: SANGER: Inhibition of human IST-SL1 cell growth in a cell viability assay.

K562 = conditions: Homo sapiens, K562
Description: SANGER: Inhibition of human K-562 cell growth in a cell viability assay.

KALS-1 = conditions: Homo sapiens, KALS-1
Description: SANGER: Inhibition of human KALS-1 cell growth in a cell viability assay.

KGN = conditions: Homo sapiens, KGN
Description: SANGER: Inhibition of human KGN cell growth in a cell viability assay.

KM12 = conditions: Homo sapiens, KM12
Description: SANGER: Inhibition of human KM12 cell growth in a cell viability assay.

KP-N-YS = conditions: Homo sapiens, KP-N-YS
Description: SANGER: Inhibition of human KP-N-YS cell growth in a cell viability assay.

KU812 cell line = conditions: Homo sapiens, KU812
Description: SANGER: Inhibition of human KU812 cell growth in a cell viability assay.

KY821 = conditions: Homo sapiens, KY821
Description: SANGER: Inhibition of human KY821 cell growth in a cell viability assay.

LB1047-RCC = conditions: Homo sapiens, LB1047-RCC
Description: SANGER: Inhibition of human LB1047-RCC cell growth in a cell viability assay.

LB2241-RCC = conditions: Homo sapiens, LB2241-RCC
Description: SANGER: Inhibition of human LB2241-RCC cell growth in a cell viability assay.

LB373-MEL-D = conditions: Homo sapiens, LB373-MEL-D
Description: SANGER: Inhibition of human LB373-MEL-D cell growth in a cell viability assay.

LB831-BLC = conditions: Homo sapiens, LB831-BLC
Description: SANGER: Inhibition of human LB831-BLC cell growth in a cell viability assay.

MHH-NB-11 = conditions: Homo sapiens, MHH-NB-11
Description: SANGER: Inhibition of human MHH-NB-11 cell growth in a cell viability assay.

ML-2 = conditions: Homo sapiens, ML-2
Description: SANGER: Inhibition of human ML-2 cell growth in a cell viability assay.

MMAC-SF = conditions: Homo sapiens, MMAC-SF
Description: SANGER: Inhibition of human MMAC-SF cell growth in a cell viability assay.

MPP-89 = conditions: Homo sapiens, MPP-89
Description: SANGER: Inhibition of human MPP-89 cell growth in a cell viability assay.

NB17 = conditions: Homo sapiens, NB17
Description: SANGER: Inhibition of human NB17 cell growth in a cell viability assay.

NCI-H1581 = conditions: Homo sapiens, NCI-H1581
Description: SANGER: Inhibition of human NCI-H1581 cell growth in a cell viability assay.

NCI-H1838 = conditions: Homo sapiens, NCI-H1838
Description: SANGER: Inhibition of human NCI-H1838 cell growth in a cell viability assay.

NCI-H526 = conditions: Homo sapiens, NCI-H526
Description: SANGER: Inhibition of human NCI-H526 cell growth in a cell viability assay.

NKM-1 = conditions: Homo sapiens, NKM-1
Description: SANGER: Inhibition of human NKM-1 cell growth in a cell viability assay.

NMC-G1 = conditions: Homo sapiens, NMC-G1
Description: SANGER: Inhibition of human NMC-G1 cell growth in a cell viability assay.

ONS-76 = conditions: Homo sapiens, ONS-76
Description: SANGER: Inhibition of human ONS-76 cell growth in a cell viability assay.

SK-PN-DW = conditions: Homo sapiens, SK-PN-DW
Description: SANGER: Inhibition of human SK-PN-DW cell growth in a cell viability assay.

SK-UT-1 = conditions: Homo sapiens, SK-UT-1
Description: SANGER: Inhibition of human SK-UT-1 cell growth in a cell viability assay.

SW 962 = conditions: Homo sapiens, SW 962
Description: SANGER: Inhibition of human SW962 cell growth in a cell viability assay.

A101D = conditions: Homo sapiens, A101D
Description: SANGER: Inhibition of human A101D cell growth in a cell viability assay.

A3-KAW = conditions: Homo sapiens, A3-KAW
Description: SANGER: Inhibition of human A3-KAW cell growth in a cell viability assay.

ALL-PO = conditions: Homo sapiens, ALL-PO
Description: SANGER: Inhibition of human ALL-PO cell growth in a cell viability assay.

BE-13 = conditions: Homo sapiens, BE-13
Description: SANGER: Inhibition of human BE-13 cell growth in a cell viability assay.

Becker = conditions: Homo sapiens, Becker
Description: SANGER: Inhibition of human Becker cell growth in a cell viability assay.

TE-5 = conditions: Homo sapiens, TE-5
Description: SANGER: Inhibition of human TE-5 cell growth in a cell viability assay.

VA-ES-BJ = conditions: Homo sapiens, VA-ES-BJ
Description: SANGER: Inhibition of human VA-ES-BJ cell growth in a cell viability assay.

CCRF-CEM = conditions: Homo sapiens, CCRF-CEM
Description: SANGER: Inhibition of human CCRF-CEM cell growth in a cell viability assay.

CGTH-W-1 = conditions: Homo sapiens, CGTH-W-1
Description: SANGER: Inhibition of human CGTH-W-1 cell growth in a cell viability assay.

KLE = conditions: Homo sapiens, KLE
Description: SANGER: Inhibition of human KLE cell growth in a cell viability assay.

NCI-H1299 = conditions: Homo sapiens, NCI-H1299
Description: SANGER: Inhibition of human NCI-H1299 cell growth in a cell viability assay.

TGBC24TKB = conditions: Homo sapiens, TGBC24TKB
Description: SANGER: Inhibition of human TGBC24TKB cell growth in a cell viability assay.

## CC[C@H](CO)Nc1nc(NCc2ccccc2)c2ncn(C(C)C)c2n1 [SELICICLIB]
COR-L88
  IC50: > 16 µM
D-392MG
  IC50: > 16 µM
ES8
  IC50: > 16 µM
EW-18
  IC50: > 16 µM
EOL1
  IC50: > 16 µM
GB-1
  IC50: > 16 µM
GI-ME-N
  IC50: > 16 µM
GR-ST
  IC50: > 16 µM
HC-1
  IC50: > 16 µM
HH
  IC50: > 16 µM
HOP-62
  IC50: > 16 µM
IST-SL1
  IC50: > 16 µM
K562
  IC50: > 16 µM
KALS-1
  IC50: > 16 µM
KGN
  IC50: > 16 µM
KM12
  IC50: > 16 µM
KP-N-YS
  IC50: > 16 µM
KU812 cell line
  IC50: > 16 µM
KY821
  IC50: > 16 µM
LB1047-RCC
  IC50: > 16 µM
LB2241-RCC
  IC50: > 16 µM
LB373-MEL-D
  IC50: > 16 µM
LB831-BLC
  IC50: 11.6 µM
MHH-NB-11
  IC50: > 16 µM
ML-2
  IC50: > 16 µM
MMAC-SF
  IC50: > 16 µM
MPP-89
  IC50: > 16 µM
NB17
  IC50: > 16 µM
NCI-H1581
  IC50: > 16 µM
NCI-H1838
  IC50: > 16 µM
NCI-H526
  IC50: > 16 µM
NKM-1
  IC50: > 16 µM
NMC-G1
  IC50: > 16 µM
ONS-76
  IC50: > 16 µM
SK-PN-DW
  IC50: > 16 µM
SK-UT-1
  IC50: 10.3 µM
SW 962
  IC50: > 16 µM
A101D
  IC50: > 16 µM
A3-KAW
  IC50: 5.76 µM
ALL-PO
  IC50: > 16 µM
BE-13
  IC50: > 16 µM
Becker
  IC50: 9.46 µM
TE-5
  IC50: > 16 µM
VA-ES-BJ
  IC50: > 16 µM
CCRF-CEM
  IC50: > 16 µM
CGTH-W-1
  IC50: > 16 µM

## C=C(c1ccc(C(=O)O)cc1)c1cc2c(cc1C)C(C)(C)CCC2(C)C [BEXAROTENE]
COR-L88
  IC50: > 8 µM
D-392MG
  IC50: > 8 µM
ES8
  IC50: > 8 µM
EW-18
  IC50: > 8 µM
EOL1
  IC50: > 8 µM
GB-1
  IC50: > 8 µM
GI-ME-N
  IC50: > 8 µM
GR-ST
  IC50: > 8 µM
HC-1
  IC50: > 8 µM
HH
  IC50: > 8 µM
HOP-62
  IC50: > 8 µM
IST-SL1
  IC50: > 8 µM
K562
  IC50: > 8 µM
KALS-1
  IC50: > 8 µM
KGN
  IC50: > 8 µM
KLE
  IC50: > 8 µM
KM12
  IC50: > 8 µM
KU812 cell line
  IC50: > 8 µM
KY821
  IC50: > 8 µM
LB1047-RCC
  IC50: > 8 µM
LB2241-RCC
  IC50: > 8 µM
LB373-MEL-D
  IC50: > 8 µM
LB831-BLC
  IC50: > 8 µM
MHH-NB-11
  IC50: > 8 µM
ML-2
  IC50: > 8 µM
MMAC-SF
  IC50: > 8 µM
MPP-89
  IC50: > 8 µM
NCI-H1299
  IC50: > 8 µM
NCI-H1581
  IC50: > 8 µM
NCI-H1838
  IC50: > 8 µM
NCI-H526
  IC50: > 8 µM
NKM-1
  IC50: > 8 µM
NMC-G1
  IC50: > 8 µM
ONS-76
  IC50: > 8 µM
SK-PN-DW
  IC50: > 8 µM
SK-UT-1
  IC50: > 8 µM
SW 962
  IC50: > 8 µM
A101D
  IC50: > 8 µM
A3-KAW
  IC50: > 8 µM
ALL-PO
  IC50: 5.86 µM
BE-13
  IC50: > 8 µM
Becker
  IC50: > 8 µM
TE-5
  IC50: > 8 µM
TGBC24TKB
  IC50: > 8 µM
VA-ES-BJ
  IC50: > 8 µM
CCRF-CEM
  IC50: > 8 µM
CGTH-W-1
  IC50: > 8 µM
